# In patent publication US9546201B2, “MUC-1 cytoplasmic domain peptides as inhibitors of cancer” (DANA-FARBER CANCER INSTITUTE, INC., priority 2008, dated 2017):
# Where no end group is shown, it is not given here. [ ]: non-standard residue; d: D form.
# Experiments:
# [1] = test system: multiple carcinoma cell lines; assay: Inventors' recent studies of MUC1 C-terminal peptides on carcinoma cell lines; format: cell-based; conditions: L-amino acid peptide
# From the text: However, these MUC1-C-terminal peptides consists of L-amino acids. […] Consequently, they have generated an all-dextro form of the above described shorter MUC1 C-terminal peptide, in which the L-amino acids were changed to D-amino acids (GO-203). Moreover, to determine the minimum amino acid residues from the MUC1-C-terminal region that are required to retain the cell killing activity, they have also generated many different versions of GO-203 as described in FIG. 8.
# [2] = test system: DU145 prostate carcinoma cells; assay: DU145 cell growth by MTT assay; format: cell-based; conditions: 5 μM, 4 days (FIG. 7)
# Protocol: FIG. 7. MUC1 7-mer inhibits prostate carcinoma. DU145 prostate carcinoma cells were treated with 5 μM CQC short (7-mer; SEQ ID NO: 53) or 5 μM CQC long (15-mer; SEQ ID NO: 63) peptides for 4 days. Cell growth was measured by MTT assay. The Y-axis represents percent growth inhibition compared to untreated cells (control).
# [3] = test system: ZR-75-1 breast carcinoma cells; assay: ZR-75-1 proliferation with GO-203 analogs (trypan blue exclusion); format: cell-based, human; conditions: 5 μM every day for 4 days
# Protocol: FIG. 10. Effect of different MUC1-CD CQC-region peptides on the growth of hormone-dependent breast carcinoma cells. To determine whether exposure to different MUC1-CD CQC-region containing peptides affect growth, ZR-75-1 breast carcinoma cells were treated with 5 μM of different peptides for 4 days and monitored for cell proliferation. […] Y-axis represents percent growth inhibition as compared to control untreated cells.
# FIG. 14. Effect of Shorter GO-203 peptides on proliferation of ZR-75-1 Breast Cancer Cells. Human ZR-75-1 breast cancer cells were grown in RPMI1640 supplemented with 10% heat-inactivated fetal bovine serum, 100 units/ml penicillin, 100 μg/ml streptomycin. Cells were treated with different peptides at 5 μM every day for four days and cell viability was determined by trypan blue exclusion.
# Multiple tumor cell lines (ZR-75-1 Hormone-dependent Breast Carcinoma; MDA-MB-231 Triple-Negative Breast Carcinoma; A549 Non-small Cell Lung Carcinoma; H-1975 Non-small Cell Lung Carcinoma) were grown in RPMI-1640 supplemented with 10% heat-inactivated fetal bovine serum, 100 units/mL penicillin and 100 μg/mL streptomycin and 2 mmol/L L-glutamine. Cells were treated separately with 5 μM of different analogs of GO-203 (FIG. 8) for 3 to 7 days and viability was determined by trypan blue exclusion. The proliferation of different cell lines was compared with cells treated with vehicle only.
# [4] = test system: H-1975 non-small cell lung carcinoma cell line; conditions: 5 μM, 3 days
# Protocol: H-1975 non-small cell lung carcinoma cell line was grown in DMEM with 10% heat-inactivated fetal bovine serum with 100 units/mL penicillin, 100 μg/ml streptomycin and 2 mmol/L L-glutamine. Cells were re-seeded one day before treatments. Cells were treated with 5 μM GO-200-2B for 3 days and cell viability was determined by trypan blue exclusion. Y-axis represents percent viability as compared to control untreated cells.
# H1975 non-small cell lung carcinoma cells were treated with 5 μM of different MUC1-CD CQC-region peptides for 6 days. Viable cell number on day 6 was determined by trypan blue exclusion. […] Y-axis represents relative growth as compared to control untreated cells.
# Moreover, another non-small cell lung carcinoma cell line, H-1975, was treated with 5 μM GO-200-2B for 3 days and monitored for cell growth as well as cell death.
# Multiple tumor cell lines (ZR-75-1 Hormone-dependent Breast Carcinoma; MDA-MB-231 Triple-Negative Breast Carcinoma; A549 Non-small Cell Lung Carcinoma; H-1975 Non-small Cell Lung Carcinoma) were grown in RPMI-1640 supplemented with 10% heat-inactivated fetal bovine serum, 100 units/mL penicillin and 100 μg/mL streptomycin and 2 mmol/L L-glutamine. […] The proliferation of different cell lines was compared with cells treated with vehicle only.
# ZR-75-1 cells = assay: In vitro cytotoxicity and combination assays (MTS, CombiTool combination index); format: cell-based, human
# Protocol: FIGS. 15A-D. Effects of GO-203 in combination with different anti-cancer drugs. ZR-75-1 cells were exposed to the indicated concentrations of Cisplatin (FIG. 15A), Doxorubicin (FIG. 15B), rh-TNF-α (FIG. 15C) and Taxol (FIG. 15D) alone and in combination with GO-203. The treatment was sequential for Cisplatin, Doxorubicin and Taxol where cells were exposed to these agents for 72 h followed by treatment with 5 μM of GO-203 for 72 h. In studies with rh-TNF, cells were exposed concomitantly to different concentrations of rh-TNF alone and in combination with 5 μM of GO-203 for 72 h. The MTS assay was used to determine the cell survival. For all panels, the Y-axis represents percent growth as compared to control untreated cells.
# FIG. 16. GO-203 is additive or synergistic with anti-cancer agents. The plots show combination indexes against different effect levels (fraction affected). The effect level was obtained by treating cells with the indicated combinations of anti-cancer drugs and GO-203. Y-axis represents—fold growth as compared to control untreated cells.
# Cells were seeded in a 96-well flat-bottomed microtiter plate (Fisher) at 1000 cells per well for a 6-day experiment or at 3000 cells per well for a 3-day experiment. The cells were then cultured for 24 h. Anti-cancer drugs and GO-203 were diluted to the indicated concentrations and added to the cells. GO-203 (5 μmol/L) was added every 24 h for 72 h. Cell viability was determined by adding MTS reagent to the cells and reading the absorbance at 490 nm by a microplate reader.
# The IC50 values for all the anti-cancer drugs were determined by non-linear regression analysis using Graphpad Prism (GraphPad Software, San Diego Calif.). The CombiTool computer program (version 2.001, IMB Jena Biocomputing Group) was used to calculate the combination index within a dose range in the presence of 5 μmol/L GO-203.
# The combination index (CI) values generated by the CombiTool program were plotted against the fraction affected by the drug combination. The CI values were close to 1 for Cisplatin and GO-203, indicating an additive interaction. The CI values obtained for Doxorubicin (25, 50, 100, 200 nM), Taxol (25, 50, 100 nM) and TNF (10, 20, 40 ng/ml) with GO-203 were less than 1, supporting a strong additive effect or synergism (FIGS. 15A-D and 16).
# His-MUC1-CD = molecular target: T1, His-MUC1-CD (Homo sapiens, UniProt P15941); conditions: BIAcore analysis, Leng et al., 2007; read-out: dissociation constant (Kd) of MUC1-CD dimers; cited from earlier work
# T1 sequence (P15941 1184-1255): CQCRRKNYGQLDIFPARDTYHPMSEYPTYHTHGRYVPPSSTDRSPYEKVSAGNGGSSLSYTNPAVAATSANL
compound,measurement,setting,value
MUC1/CQC 7-mer: shorter MUC1-C-terminal peptide CQCRRKN of L-amino acids (7-mer; SEQ ID NO: 53),killing of tumor cells,[1],active in killing tumor cells
same,in vitro activity relative to the 15-mer,[2],as potent as the MUC1/CQC 15-mer
"GO-208: shorter GO-203 peptide, SEQ ID NO:50 (CQCRR)",growth of ZR-75-1 cells,[3],significant inhibition of growth
CC(=O)N[C@@H](C)C(=O)N[C@@H](CCCCN)C(=O)N[C@@H](CCCCN)C(=O)N[C@@H](Cc1ccc(O)cc1)C(=O)N[C@@H](CC(C)C)C(=O)N[C@@]1(C)CCCC=CCCCC2(CCCC=CCCC[C@@](C)(C(=O)N[C@@H](CCCNC(=N)N)C(=O)N[C@@H](CCCCN)C(=O)N[C@@H](CC(N)=O)C(=O)N[C@@H](Cc3ccc(O)cc3)C(N)=O)NC(=O)[C@H](CS)NC(=O)[C@H](CCC(N)=O)NC(=O)[C@H](CS)NC2=O)NC(=O)[C@H](C)NC(=O)[C@H](CC(C)C)NC(=O)[C@H](C)NC1=O (stereo partly drawn) [GO-200-2B],cell death,[4],significant induction of cell death
"GO-209: shorter GO-203 peptide, SEQ ID NO:54 (CQCR)",growth of ZR-75-1 cells,[3],significant inhibition of growth
"GO-207: shorter GO-203 peptide, SEQ ID NO:4 (CQCRRK)",growth of ZR-75-1 cells,[3],significant inhibition of growth
GO-203: all-dextro form of the shorter MUC1 C-terminal peptide CQCRRKN (SEQ ID NO:53) ([dC][dQ][dC][dR][dR][dK][dN]; cysteine pairing not given here),combination index (CI) with Cisplatin,ZR-75-1 cells; Cisplatin 72 h followed by 5 μM GO-203 for 72 h,~1
same,combination index (CI) with Doxorubicin,"ZR-75-1 cells; Doxorubicin 25, 50, 100, 200 nM, followed by 5 μM GO-203",less than 1
same,combination index (CI) with Taxol,"ZR-75-1 cells; Taxol 25, 50, 100 nM, followed by 5 μM GO-203",less than 1
same,combination index (CI) with TNF,"ZR-75-1 cells; rh-TNF 10, 20, 40 ng/ml concomitantly with 5 μM GO-203 for 72 h",less than 1
same,growth of ZR-75-1 cells,[3],significant inhibition of growth
MUC1-CD: 72-amino acid MUC1 cytoplasmic domain (SEQ ID NO:1); forms dimers,Kd,His-MUC1-CD,33 nM
